Assay results as given in publication PMC3728097 (PLoS ONE, 2013).
Entries after “also recorded” stand apart in the source; their conditions may differ.

Legend:
[1] = biological target: α7 nAChRs in the monkey brain (Macaca mulatta, UniProt Q866A2); format: in vivo; conditions: monkey SPECT, pretreatment SSR180711 5.0 mg/kg i.v.
Method: Four monkeys (male, 7 year olds, 8 kg) were selected for SPECT imaging. Immediately after HPLC column purification, 50 µg (74 MBq) of the ^131I-CHIBA-1001 in 2 mL of normal saline were injected into the monkeys via intravenous administration after administration of saline (control) or SSR180711 (5.0 mg/kg, i.v.). […] At 0.5, 1.5, and 2 h after injection, imaging was performed in the Department of Nuclear Medicine, Peking University First Hospital, using SPECT (SPR SPECT; GE Healthcare, Inc.) equipped with a high-energy general purpose (HEGP) collimator. Static images (200,000 counts), obtained with a zoom factor of 2.0, were digitally stored in a 64 × 64 matrix.

[2] = biological target: T1, α7 nAChRs in the rat brain (Rattus norvegicus, UniProt Q05941); test: In vitro saturation binding assay of ^125I-CHIBA-1001 in rat brain membranes; conditions: 4°C, n = 5, mean ± S.E.M.
T1 construct: aliquots of a membrane suspension (200 µl), ^125I-CHIBA-1001 and the indicated concentrations of test drug; from tissue; host or cells: rat brain membranes (Sprague Dawley)
T1 sequence (Q05941 23-502): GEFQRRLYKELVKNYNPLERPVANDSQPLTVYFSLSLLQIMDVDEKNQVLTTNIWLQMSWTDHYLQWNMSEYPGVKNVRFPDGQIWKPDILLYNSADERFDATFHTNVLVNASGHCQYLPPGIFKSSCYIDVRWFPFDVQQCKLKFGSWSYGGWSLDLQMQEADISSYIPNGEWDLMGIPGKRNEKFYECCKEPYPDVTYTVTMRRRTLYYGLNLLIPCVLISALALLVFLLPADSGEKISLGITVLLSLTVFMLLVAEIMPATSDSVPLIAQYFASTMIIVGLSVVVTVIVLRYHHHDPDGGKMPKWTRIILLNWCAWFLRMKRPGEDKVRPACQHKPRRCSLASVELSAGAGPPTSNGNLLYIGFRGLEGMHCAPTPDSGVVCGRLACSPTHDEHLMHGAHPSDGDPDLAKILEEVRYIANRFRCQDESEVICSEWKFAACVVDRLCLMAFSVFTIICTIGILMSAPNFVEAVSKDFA
Method: Male SD (Sprague Dawley) rats (8–10 week olds, 180–200 g) were used for the experiments. After sacrificing the rats by decapitation, the brains were rapidly removed from the skulls.
The tissues of each brain region were homogenized in 15 volumes of 50 mM Tris–HCl buffer (120 mM NaCl, 2 mM KCl, 1 mM CaCl2, 1 mM MgCl 2, pH 7.4 at 4°C) using a Polytron homogenizer at setting No. 5 for 30s on ice. The membranes were centrifuged in 50 ml polypropylene tube at 48,000 g for 20 min at 4°C. The supernatant was discarded and the pellet re-suspended, homogenized and centrifuged as above. The membrane pellet was washed and re-suspended in ice-cold buffer and was then centrifuged two more times. The final pellet was re-suspended in 10 volumes of the same buffer.
Assays of the binding of ^125I-CHIBA-1001 to α7 nAChRs in the rat brain were performed according to the method published previously [21], [22]. The reaction mixtures were consisted of aliquots of a membrane suspension (200 µl), ^125I-CHIBA-1001 and the indicated concentrations of test drug in a final volume of 0.5 ml in duplicate. Non-specific binding was estimated in the presence of 30 µM SSR180711. Binding reaction was conducted for 150 min at 4°C for the equilibrium saturation and inhibition studies.

α7 nAChRs = conditions: cited from earlier work
[3] = blocked cerebellum as nonspecific binding

Chain of α7 nAChRs in the monkey brain (Q866A2 23-502): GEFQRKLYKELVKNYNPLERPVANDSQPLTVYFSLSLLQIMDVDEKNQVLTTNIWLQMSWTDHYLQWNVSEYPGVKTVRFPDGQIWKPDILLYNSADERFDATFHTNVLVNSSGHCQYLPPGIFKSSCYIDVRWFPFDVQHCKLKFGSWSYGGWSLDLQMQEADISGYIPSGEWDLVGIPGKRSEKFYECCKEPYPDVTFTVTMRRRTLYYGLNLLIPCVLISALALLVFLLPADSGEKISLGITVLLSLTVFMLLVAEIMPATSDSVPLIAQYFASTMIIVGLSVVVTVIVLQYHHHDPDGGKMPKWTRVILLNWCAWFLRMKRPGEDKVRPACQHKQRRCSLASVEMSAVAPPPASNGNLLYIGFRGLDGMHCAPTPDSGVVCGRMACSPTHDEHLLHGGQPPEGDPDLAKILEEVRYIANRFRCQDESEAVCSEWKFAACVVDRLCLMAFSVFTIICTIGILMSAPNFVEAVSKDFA

Compound: O=C(Oc1ccc(Br)cc1)N1CCN2CCC1CC2 [SSR180711]
- blockade of ^131I-CHIBA-1001 uptake in the cerebellum [1]: minimal
- effect of pretreatment on uptake of ^131I-CHIBA-1001 radioactivity in the brain [1]: blocked the radioactive uptake in the brain successfully; also recorded: decreased
- decrease of specific binding of ^131I-CHIBA-1001 in the frontal cortex [1, 3]: 38.5±2.1%
- decrease of specific binding of ^131I-CHIBA-1001 in the thalamus [1, 3]: 35.7±2.8%

Compound: O=C(Oc1ccc(I)cc1)N1CCN2CCC1CC2 [^125I-CHIBA-1001]
- Kd ([2]; read-out: apparent Kd): 81.9 ± 7.95 nM

Compound: O=C(Oc1ccc([125I])cc1)N1CCN2CCC1CC2 [^125I-CHIBA-1001]
- B max [2]: 63.97±17.45 fmol/mg protein

Compound: [^125I]methyllycaconitine [^125I-MLA]
- Kd (α7 nAChRs): 1.8 nM
